Measurements published in patent publication EP2951180B1, “2,6,7,8 SUBSTITUTED PURINES AS HDM2 INHIBITORS” (Merck Sharp & Dohme Corp., priority 2013, dated 2014).
Read-outs that look alike come from different tables or passages of the source.

Target: T1, HDM2 (Homo sapiens, UniProt Q00987)
T1 construct: Thioredoxin (N); made in house; host or cells: E. coli strain BL21(DE3)Rosetta
Assay: HDM2 FRET assay (inhibition of binding of FITC labeled p53-pocket peptide to HDM2)
Conditions: for IC50: read-out: FRET IC50
How it was run: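 Compounds were tested in 10-point serial dilution against 0.5 nM recombinant HDM2 binding 3 nM fluorescein-labeled p53-pocket peptide. Detection used 0.25 nM terbium cryptate anti-6xHis antibody in PBS buffer containing 0.01% BSA and 0.01% Tween-20.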

[1] = 0.5 nM HDM2 (residues 17 to 125), 3nM peptide, two hour incubation at room temperature

T1 sequence (Q00987 17-125): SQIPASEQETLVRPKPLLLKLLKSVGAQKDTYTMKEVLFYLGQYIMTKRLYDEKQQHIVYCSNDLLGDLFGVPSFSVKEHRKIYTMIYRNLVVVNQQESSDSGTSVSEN

CC(C)c1ccnc(-c2nc3nc(CO)nc(N[C@H](C)C4CCC4)c3n2C[C@H]2CC[C@H](C)CC2)c1 [Example 12.34, (6-{[(1R)-1-cyclobutylethyl]amino}-7-[(trans-4-methylcyclohexyl)methyl]-8-[4-(1-methylethyl)pyridin-2-yl]-7H-purin-2-yl)methanol]
IC50 [1]: 301 nM

C[C@@H](Nc1nc(-c2noc(=O)[nH]2)nc2nc(N3CCCCC3C3CCCCC3)n(C[C@H]3CC[C@H](C)CC3)c12)C1CCC1 (stereo partly drawn) [Example 11.5, 3-(6-(((R)-1-cyclobutylethyl)amino)-8-(2-cyclohexylpiperidin-1-yl)-7-((trans-4-methylcyclohexyl)methyl)-7H-purine-2-yl)-1,2,4-oxadiazol-5(4H)-one]
IC50 (Table 11): 450 nM

CCCN(CC)c1nc(C(=O)O)nc2nc(-c3cccc(C)c3)n(Cc3ccc(C(F)(F)F)cc3)c12 [Example 6.70, 6-[ethyl(propyl)amino]-8-(3-methylphenyl)-7-[4-(trifluoromethyl)benzyl]-7H-purine-2-carboxylic acid]
inhibition at 1 µM (read-out: inh. at 1000 nM (FRET)): 39%

COC(c1ccccc1F)c1nc2nc(-c3n[nH]c(=O)o3)nc(-c3cncc(Cl)c3)c2n1C[C@H]1CC[C@H](C)CC1 (mixture of isomers) [Example 23.103, 5-{6-(5-chloropyridin-3-yl)-8-[(2-fluorophenyl)(methoxy)methyl]-7-[(trans-4-methylcyclohexyl)methyl]-7H-purin-2-yl}-1,3,4-oxadiazol-2(3H)-one]
IC50 (Table 23): 1.7 nM

C[C@@H](Nc1nc(C(=O)O)nc2nc(N3CCCC3c3ccccc3)n(Cc3ccc(C(F)(F)F)cc3)c12)C1CCC1 (single isomer, unassigned) [Example 9.64]
IC50 (Table 9): 10.2 nM

COCCN(C)c1nc2nc(-c3noc(=O)[nH]3)nc(N[C@H](C)C3CCC3)c2n1C[C@H]1CC[C@H](C)CC1 [Example 11.116, 3-(6-{[(1R)-1-cyclobutylethyl]amino}-8-[(2-methoxyethyl)(methyl)amino]-7-[(trans-4-methylcyclohexyl)methyl]-7H-purin-2-yl)-1,2,4-oxadiazol-5(2H)-one]
IC50 (Table 11): 21 nM

C[C@@H](Nc1nc(-c2noc(=O)[nH]2)nc2nc(C(C)(O)C(C)(C)C)n(C[C@H]3CC[C@H](C)CC3)c12)C1CCC1 (stereo partly drawn) [Example 22.2, 3-(6-{[(1R)-1-cyclobutylethyl]amino}-8-(1-hydroxy-1,2,2-trimethylpropyl)-7-[(trans-4-methylcyclohexyl)methyl]-7H-purin-2-yl)-1,2,4-oxadiazol-5(4H)-one]
IC50 (Table 22): 10.6 nM

C[C@H]1CC[C@H](Cn2c(N3CCOCC34CCC4)nc3nc(-c4noc(=O)[nH]4)nc(-c4cncc(Cl)c4)c32)CC1 [Example 16.144, 3-[6-(5-chloropyridin-3-yl)-7-[(trans-4-methylcyclohexyl)methyl]-8-(8-oxa-5-azaspiro[3.5]non-5-yl)-7H-purin-2-yl]-1,2,4-oxadiazol-5(4H)-one]
IC50 [1]: 19.1 nM

C[C@@H](Nc1nc(C(=O)O)nc2nc(N3CCCC3c3cccc(F)c3)n(Cc3ccc(C(F)(F)F)cc3)c12)C1CCC1 (stereo partly drawn) [Example 9.60, 6-{[(1R)-1-cyclobutylethyl]amino}-8-[2-(3-fluorophenyl)pyrrolidin-1-yl]-7-[4-(trifluoromethyl)benzyl]-7H-purine-2-carboxylic acid]
IC50 (Table 9): 10.2 nM

Cc1cccc(-c2nc(-c3n[nH]c(=O)o3)nc3nc(N4CCOC[C@@H]4C)n(C[C@H]4CC[C@H](C)CC4)c23)c1 [Example 16.37, 5-{7-[(trans-4-methylcyclohexyl)methyl]-8-[(3S)-3-methylmorpholin-4-yl]-6-(3-methylphenyl)-7H-purin-2-yl} -1,3,4-oxadiazol-2(3H)-one]
IC50 [1]: 1000 nM

CC(c1nc2nc(C(=O)O)nc(N[C@H](C)C3CCC3)c2n1Cc1ccc(C(F)(F)F)cc1)N(C)c1ccccc1 (stereo partly drawn) [Example 10.10, 6-(((R)-1-cyclobutylethyl)amino)-8-(1-(methyl(phenyl)amino)ethyl)-7-(4-(trifluoromethyl)benzyl)-7H-purine-2-carboxylic acid]
IC50 (Table 10): 68.8 nM

C[C@H]1CC[C@H](Cn2c(N3CCOC[C@H]3c3ccccc3)nc3nc(-c4noc(=O)[nH]4)nc(-c4ccccc4)c32)CC1 [Example 16.12, 3-(7-(((trans)-4-methylcyclohexyl)methyl)-6-phenyl-8-((R)-3-phenylmorpholino)-7H-purin-2-yl)-1,2,4-oxadiazol-5(4H)-one]
IC50 [1]: 10.1 nM

C[C@@H](Nc1nc(-c2noc(=O)[nH]2)nc2nc(N(C)Cc3ccon3)n(C[C@H]3CC[C@H](C)CC3)c12)C1CCC1 [Example 11.64, 3-(6-{[(1R)-1-cyclobutylethyl]amino}-8-[(isoxazol-3-ylmethyl)(methyl)amino]-7-[(trans-4-methylcyclohexyl)methyl]-7H-purin-2-yl)-1,2,4-oxadiazol-5(4H)-one]
IC50 (Table 11): 5.77 nM

C[C@H](Nc1nc2nc(-c3noc(=O)[nH]3)nc(N[C@H](C)C3CCC3)c2n1C[C@H]1CC[C@H](C)CC1)c1cccc(F)c1 [Example 11.106, 3-(6-{[(1R)-1-cyclobutylethyl]amino}-8-{[(1S)-1-(3-fluorophenyl)ethyl]amino}-7-[(trans-4-methylcyclohexyl)methyl]-7H-purin-2-yl)-1,2,4-oxadiazol-5(2H)-one]
IC50 (Table 11): 3.22 nM

COc1ncc(Cl)cc1-c1nc(-c2noc(=O)[nH]2)nc2nc(N3CCOC[C@H]3c3ccccc3)n(C[C@H]3CC[C@H](C)CC3)c12 [Example 16.156, 3-{6-(5-chloro-2-methoxypyridin-3-yl)-7-[(trans-4-methylcyclohexyl)methyl]-8-[(3R)-3-phenylmorpholin-4-yl]-7H-purin-2-yl}-1,2,4-oxadiazol-5(4H)-one]
IC50 [1]: 0.851 nM

C[C@H]1CC[C@H](Cn2c(C(O)C3CCOCC3)nc3nc(-c4noc(=O)[nH]4)nc(-c4cncc(Cl)c4)c32)CC1 (mixture of isomers) [Example 23.17, 3-{6-(5-chloropyridin-3-yl)-8-[hydroxy(tetrahydro-2H-pyran-4-yl)methyl]-7-[(trans-4-methylcyclohexyl)methyl] -7H-purin-2-yl}-1,2,4-oxadiazol-5(4H)-one]
IC50 (Table 23): 67.3 nM

CC(C)CN(C)C(C)c1nc2nc(C(=O)O)nc(N[C@H](C)C3CCC3)c2n1Cc1ccc(C(F)(F)F)cc1 (stereo partly drawn) [Example 10.9, 6-(((R)-1-cyclobutylethyl)amino)-8-(1-(isobutyl(methyl)amino)ethyl)-7-(4-(trifluoromethyl)benzyl)-7H-purine-2-carboxylic acid]
IC50 (Table 10): 21.2 nM

C[C@@H]1[C@@H](C)OCCN1c1nc2nc(-c3n[nH]c(=O)o3)nc(-c3cncc(Cl)c3)c2n1C[C@H]1CC[C@H](C)CC1 [Example 16.140, 5-{6-(5-chloropyridin-3-yl)-8-[(2R,3R)-2,3-dimethylmorpholin-4-yl]-7-[(trans-4-methylcyclohexyl)methyl]-7H-purin-2-yl}-1,3,4-oxadiazol-2(3H)-one]
IC50 [1]: 9.45 nM

C[C@@H](Nc1nc(C(=O)NS(=O)(=O)N(C)C)nc2nc(N3CCOC[C@H]3c3ccccc3)n(C[C@H]3CC[C@H](C)CC3)c12)C1CCC1 [Example 12.24, 6-{[(1R)-1-cyclobutylethyl]amino}-N-(dimethylsulfamoyl)-7-[(trans-4-methylcyclohexyl)methyl]-8-[(3R)-3-phenylmorpholin-4-yl]-7H-purine-2-carboxamide]
IC50 [1]: 1.41 nM

COC(C)(c1ccccc1F)c1nc2nc(-c3noc(=O)[nH]3)nc(-c3cncc(Cl)c3)c2n1C[C@H]1CC[C@H](C)CC1 (single isomer, unassigned) [Example 23.49, 3-{6-(5-chloropyridin-3-yl)-8-[1-(2-fluorophenyl)-1-methoxyethyl]-7-[(trans-4-methylcyclohexyl)methyl]-7H-purin-2-yl}-1,2,4-oxadiazol-5(4H)-one]
IC50 (Table 23): 0.888 nM

C[C@@H](Nc1nc(-c2noc(=O)[nH]2)nc2nc(N3CCCCC3c3ccc(F)cc3)n(Cc3ccc(C(F)(F)F)cc3)c12)C1CCC1 (stereo partly drawn) [Example 9.112, 3-(6-{[(1R)-1-cyclobutylethyl]amino}-8-[2-(4-fluorophenyl)piperidin-1-yl]-7-[4-(trifluoromethyl)benzyl]-7H-purin-2-yl)-1,2,4-oxadiazol-5(4H)-one]
IC50 (Table 9): 9.55 nM

C[C@@H](Nc1nc(C(=O)NS(C)(=O)=O)nc2nc(N3CCOC[C@H]3c3ccccc3)n(C[C@H]3CC[C@H](C)CC3)c12)C1CCC1 [Example 12.18, 6-{[(1R)-1-cyclobutylethyl]amino}-7-[(trans-4-methylcyclohexyl)methyl]-N-(methylsulfonyl)-8-[(3R)-3-phenylmorpholin-4-yl]-7H-purine-2-carboxamide]
IC50 [1]: 0.585 nM

C[C@@H](Nc1nc(-c2noc(=O)[nH]2)nc2nc(C3(c4cccc(F)c4)CC3)n(C[C@H]3CC[C@H](C)CC3)c12)C1CCC1 [Example 22.49, 3-(6-{[(1R)-1-cyclobutylethyl]amino}-8-[1-(3-fluorophenyl)cyclopropyl] -7-[(trans-4-methylcyclohexyl)methyl] -7H-purin-2-yl)-1,2,4-oxadiazol-5(4H)-one]
IC50 (Table 22): 16.9 nM

C[C@@H](Nc1nc(NCC(=O)O)nc2nc(N3CCOC[C@H]3c3ccccc3)n(C[C@H]3CC[C@H](C)CC3)c12)C1CCC1 [Example 13.6, N-(6-{[(1R)-1-cyclobutylethyl]amino}-7-[(trans-4-methylcyclohexyl)methyl]-8-[(3R)-3-phenylmorpholin-4-yl]-7H-purin-2-yl)glycine]
IC50 [1]: 146 nM

Cc1cccc(-c2nc(-c3noc(=O)[nH]3)nc3nc(N4CCOCC4)n(C[C@H]4CC[C@H](C)CC4)c23)c1 [Example 16.27, 3-{7-[(trans-4-methylcyclohexyl)methyl]-6-(3-methylphenyl)-8-morpholin-4-yl-7H-purin-2-yl}-1,2,4-oxadiazol-5(4H)-one]
IC50 [1]: 334 nM

C[C@@H](Nc1nc(-c2noc(=O)[nH]2)nc2nc(N3CCOC4CCCC43)n(C[C@H]3CC[C@H](C)CC3)c12)C1CCC1 (single isomer, unassigned) [Example 11.148]
IC50 (Table 11): 23.8 nM
